According to patent US6777176B1, “Target system” (priority 1997, dated 2004):
pIC50: −log10 of the molar value. Residues, ends and D or L forms follow the SMILES beside them. No end group written: not given here.

system: E. coli K-12 UT580; assay: Growth inhibition assay, filter discs on LB soft agar; format: cell-based; conditions: area of clear zone around filter disc, over night at 37° C.
Experimental: FIG. 4. Growth inhibition of E. coli K12 UT580.
Growth inhibition assay. […] To each filter was added 10 μl of one of the different peptide stock solutions (20 μM to 80 μM). […] Compare FIG. 4 and Table I on the following two pages.

First: GLRGKTRVHYLVLG [peptide 1]
Second: RHITLF [compound 15, RHITLF]
The “growth inhibition (area/μM)” value of the first is higher: 3.65 area/μM for the first, 0.27 area/μM for the second.

Going from RHWSIF [compound 11, RHWSIF] to RHYLLF [compound 13, RHYLLF], the “growth inhibition (area/μM)” value falls from 1.30 area/μM to 0.83 area/μM.

First: RIHFIPRRGR [compound 7]
Second: RLHYLF [compound 8, RLHYLF]
The “growth inhibition (area/μM)” value of the first is lower: 0.77 area/μM for the first, 0.90 area/μM for the second.

In the case of SGRKSTRVHHWLLVL [compound 2], the “growth inhibition (area/μM)” value was 3.05 area/μM.

system: not listed separately; assay: Growth inhibition MIC (Table 2); format: cell-based; conditions: not given

For XXKKWHLRKRXX [compound 23], the “growth inhibition MIC” value was 44.7 µM.

biological target: T1, PTS Enzyme I (Escherichia coli, UniProt P08839); assay: Inhibition of sugar uptake assay (enzyme I dependent GlcNAc phosphorylation), low molecular weight compounds; format: biochemical, E. coli; conditions: compounds at 25-200 μM, DMSO control taken as 100%; read-out: Activity against PTS Enzyme I IC50
T1 construct: made in house
Description: To find inhibitors of Enzyme I of the PTS by high throughput screening, an in vitro assay based on spectrophotometric read out at 340 nm has been set up. The assay comprises of three major components: purified enzyme I in catalytic amounts, PEP as the phosphoryl donor substrate, and purified HPr as the phosphoryl acceptor substrate. The assay couples the formation of pyruvate from PEP with its reduction to lactate, catalyzed by lactate dehydrogenase. The disappearance of NADH, cofactor required by lactate dehydrogenase, is monitored colorimetrically at 340 nm. The assay is done in a U-shaped microtiter plate format, and quantitation is done using microplate absorbance reader.
Reaction mixtures, each 100 μl, are used in the assay. Each reaction mixture contains 0.8 mM PEP, 0.2 mM NADH, 3 μg lactate dehydrogenase (Boehringer Mannheim), 50 mM KPi pH=7.5, 2.5 mM dithiothreitol, 2.5 mM NaF, 5 mM MgCl2, and between 25 and 200 μM of one of the organic compounds to be tested. […]
Once the inhibitors of Enzyme I of the PTS are identified by high throughput screening, inhibition of enzyme I dependent sugar phosphorylation activity is measured with the inhibition of sugar uptake assay detailed below.
This assay measures the inhibition of enzyme I dependent sugar phosphorylation activity. […] Activity is expressed as nmoles of sugar-P formed after 30 min. […]

First: O=C1NN=C(c2ccccc2)CC1Cc1ccc(O)cc1 (centres unmarked) [4-(4-Hydroxy-benzyl)-6-phenyl-4,5-dihydro-2H-pyridazin-3-one]
Second: Cc1cc(-c2onc(C)c2C(=O)Sc2ccc(Cl)cc2)no1 [5,3′-Dimethyl-[3,5′]-biisoxazolyl-4′-carbothioic acid-S-(4-chloro-phenyl) ester]
The pIC50 of the first is 0.40 log units higher: 4.70 for the first, 4.30 for the second.

biological target: T2, enzyme I (Escherichia coli, UniProt P08839); assay: Pyruvate formation coupled to lactate dehydrogenase (uncoupling / phosphatase activity); format: biochemical, E. coli; conditions: Table 2
T2 construct: made in house
Description: The assay can be performed in microtiter plates and quantitated with a microplate photoreader. Another assay to monitor phosphatase activity of soluble compounds is based on the detection of pyruvate which is continuously produced from phosphoenolpyruvate whenever enzyme I is dephosphorylated. The enzyme I-specific phosphatase activity of soluble compounds can be detected from the pyruvate burst. The rate of pyruvate formation is monitored with lactate dehydrogenase and NADH. The assay can be performed in microtiter plates and quantitated with a microplate photoreader.

Going from “HPr protein: small (9 kD) soluble phosphorylcarrier protein HPr, natural phosphoryl acceptor of enzyme I” to KGWHKRKK [compound 25], the “uncoupling P1/peptide/h” value falls from 2.70 P1/peptide/h to 0.23 P1/peptide/h.

Going from KKFDLRK [compound 22, KKFDLRK] to KKFHIRKR [compound 28], the “uncoupling P1/peptide/h” value rises from 0.05 P1/peptide/h to 0.31 P1/peptide/h.

Compared with KKFHLRK [compound 20, KKFHLRK], KKWHKRKK [compound 27] is lower in “uncoupling P1/peptide/h” value: 0.49 P1/peptide/h for the first, 0.215 P1/peptide/h for the second.

Compared with KKWHLRKR [compound 24], KKWHRRKK [compound 26] is lower in “uncoupling P1/peptide/h” value: 0.3 P1/peptide/h for the first, 0.29 P1/peptide/h for the second.

In the case of XXKKWHLRKRXX [compound 23], the “uncoupling P1/peptide/h” value was 0.43 P1/peptide/h.

same assay, conditions: μM NADH consumed per μM peptide per one hour multiplied by the IC50 (μM)

First: Ac-DGARLHYLF [compound 10]
Second: DGARLHYLF [compound 9]
The “uncoupling P1/peptide (x IC50/h)” value of the first is lower: 15.2 x IC50/h for the first, 132.3 x IC50/h for the second.

Going from GLRGKTRVHYLVLG [peptide 1] to KISRHGKRGK [compound 5], the “uncoupling P1/peptide (x IC50/h)” value falls from 3.2 x IC50/h to 1.9 x IC50/h.

Going from KISRHGRPTG [compound 6] to KMSRHRKPGA [compound 3], the “uncoupling P1/peptide (x IC50/h)” value falls from 479.3 x IC50/h to 22.2 x IC50/h.

Going from MSRHRN [compound 16, MSRHRN] to RIHFIPRRGR [compound 7], the “uncoupling P1/peptide (x IC50/h)” value falls from 143.8 x IC50/h to 39.6 x IC50/h.

Compared with RLHYLF [compound 8, RLHYLF], SGRKSTRVHHWLLVL [compound 2] is lower in “uncoupling P1/peptide (x IC50/h)” value: 64.2 x IC50/h for the first, 6.6 x IC50/h for the second.

biological target: T2, enzyme I; assay: biochemical; format: biochemical, E. coli; conditions: in vitro PTS activity, purified HPr, enzyme I and IIGlcNAc, 30 min at 37° C.; Table I; read-out: inhibition IC50
Description: (d) Inhibition of in vitro PTS activity. The inhibitory activity of soluble compounds can be measured quantitatively in the sugar phospbotransferase assay in the presence of the purified PTS proteins and with [^14C]GlcNAc ([^14C]N-acetyl-glucosamine) or [^14C]Glc ([[…] as terminal phosphate acceptor (Erni et al., 1982 J. Biol. Chem. 257:13726-13730).
Inhibition of phosphotransferase activity by soluble peptides. This assay measures the inhibition of enzyme I dependent sugar phosphorylation activity. […] The purified N-acetylglucosamine transporter (II^GlcNAc) of E. coli (Mukhija and Erni, 1996) was used as the sugar specific component. The reaction mixture contained per 100 μl, 100 μg phosphatidyl glycerol from egg yolk (Sigma), 50 mM KPi, pH 7.5, 2.5 mM dithiothreitol, 2.5 mM NaF, 5 MM MgCl2, 1 mM phosphoenolpyruvate (potassium salt, Sigma), 0.5 mM [U-^14C]GlcNAc (New England Nuclear; 56.3 mCi/mmol, diluted to 1000 cpm/nmol), and 3 μM each of purified HPr and enzyme I (Mao et al., 1995 J. Biol. Chem. 270:5258-5265). The reaction was started by addition of 0.1 μg of II^GlcNAc. After incubation for 30 min at 37° C., the reaction was stopped by adding 1 ml ice-cold water. GlcNAc-6-Phosphate was separated from free Glc-NAc by anion-exchange chromatography on AG-1-X2 (50-100 mesh, Biorad). Activity is expressed as nmoles of sugar-P formed after 30 min. The HPr concentration was adjustedsuch that it was rate limiting in the overall phosphotransferase reaction. The inhibitory peptides were added to concentrations of 25 μm to 10 mM. Phosphorylation of GlcNAc in the absences of peptide was taken as 100%.

Going from CSCC[C@H](N)C(=O)N[C@@H](CCCNC(=N)N)C(=O)N[C@@H](CC(C)C)C(=O)N[C@@H](CC(C)C)C(=O)N[C@@H](CCCCN)C(=O)N[C@H](C(=O)N[C@@H](CC(C)C)C(=O)N[C@@H](CS)C(=O)N[C@@H](Cc1ccccc1)C(=O)NCC(=O)N[C@@H](CC(C)C)C(=O)N[C@@H](CS)C(=O)NCC(=O)O)[C@@H](C)O [compound 18] (H-MRLLKTLCFGLCG-OH; N-terminus and C-terminus assumed) to CSCC[C@H](NC(C)=O)C(=O)N[C@@H](CCCNC(=N)N)C(=O)N[C@@H](CC(C)C)C(=O)N[C@@H](CC(C)C)C(=O)N[C@@H](CCCCN)C(=O)N[C@H](C(=O)N[C@@H](CC(C)C)C(=O)N[C@@H](CS)C(=O)N[C@@H](Cc1ccccc1)C(=O)N[C@H](C(=O)NCC(=O)N[C@@H](CC(C)C)C(=O)N[C@@H](CS)C(=O)NCC(=O)O)C(C)C)[C@@H](C)O [compound 19] (Ac-MRLLKTLCFVGLCG-OH), the pIC50 falls from 2.46 to less than 2.00.

same assay, conditions: peptides from support-based combinatorial libraries; Table 2

For KKFALRK [compound 21], the “inhibition IC50” value was “none”.
